Reference: ChEMBL document CHEMBL5223117, “Synthesis and biological evaluation of novel N, N'-diarylurea derivatives as potent antibacterial agents against MRSA” (Bioorg Med Chem Lett, 2022)
≈ marks a conversion by molar mass, not a printed value.

Experiments:
Staphylococcus aureus [1] = assay: Bactericidal activity against methicillin resistant Staphylococcus aureus ATCC 43300; format: functional
[2] = Cytotoxicity against human HeLa cells by SRB assay; format: toxicity, cell-based
Staphylococcus aureus [3] = assay: Antibacterial activity against methicillin resistant Staphylococcus aureus ATCC 33591; format: functional
[4] = Cytotoxicity against human HepG2 cells by SRB assay; format: toxicity, cell-based
Staphylococcus aureus [5] = assay: Selectivity ratio of MBC for bactericidal activity against methicillin resistant Staphylococcus aureus ATCC 33591 to MIC for antibacterial activity against methicillin resistant Staphylococcus aureus ATCC 33591; format: functional
Staphylococcus aureus [6] = assay: Antibacterial activity against methicillin resistant Staphylococcus aureus 18-2; format: functional
[7] = test system: Staphylococcus epidermidis; assay: Antibacterial activity against methicillin resistant Staphylococcus epidermidis 19-1; format: functional
Enterococcus faecium [8] = assay: Antibacterial activity against Vanomycin-resistant Enterococcus faecium 15-6; format: functional
Staphylococcus aureus [9] = assay: Bactericidal activity against methicillin resistant Staphylococcus aureus ATCC 33591; format: functional
Staphylococcus aureus [10] = assay: Antibacterial activity against methicillin sensitive Staphylococcus aureus 20-12; format: functional
Staphylococcus aureus [11] = assay: Antibacterial activity against methicillin sensitive Staphylococcus aureus ATCC 33591; format: functional
Enterococcus faecium [12] = assay: Antibacterial activity against Vanomycin-resistant Enterococcus faecium ATCC 51559; format: functional
Staphylococcus aureus [13] = assay: Antibacterial activity against methicillin sensitive Staphylococcus aureus 15; format: functional
[14] = test system: Staphylococcus epidermidis; assay: Antibacterial activity against methicillin sensitive Staphylococcus epidermidis 17-13; format: functional
Staphylococcus aureus [15] = assay: Antibacterial activity against methicillin resistant Staphylococcus aureus ATCC 43300; format: functional
[16] = test system: Staphylococcus epidermidis; assay: Antibacterial activity against methicillin sensitive Staphylococcus epidermidis ATCC 12228; format: functional
Staphylococcus aureus [17] = assay: Selectivity ratio of MBC for bactericidal activity against methicillin resistant Staphylococcus aureus ATCC 43300 to MIC for antibacterial activity against methicillin resistant Staphylococcus aureus ATCC 43300; format: functional
Staphylococcus aureus [18] = assay: Antibacterial activity against methicillin resistant Staphylococcus aureus 16-30; format: functional
Enterococcus faecalis [19] = assay: Antibacterial activity against Vanomycin-resistant Enterococcus faecalis ATCC 51575; format: functional
[20] = test system: Staphylococcus epidermidis; assay: Antibacterial activity against methicillin resistant Staphylococcus epidermidis 19-2; format: functional
Staphylococcus aureus [21] = assay: Bactericidal activity against methicillin resistant Staphylococcus aureus 16-30; format: functional
Staphylococcus aureus [22] = assay: Antibacterial activity against vancomycin intermediate and methicillin resistant Staphylococcus aureus ATCC 700699; format: functional
Enterococcus faecalis [23] = assay: Antibacterial activity against Vanomycin-resistant Enterococcus faecalis ATCC 51299; format: functional
Staphylococcus aureus [24] = assay: Antibacterial activity against methicillin resistant Staphylococcus aureus 20-11; format: functional
Enterococcus faecium [25] = assay: Antibacterial activity against Vanomycin-resistant Enterococcus faecium ATCC 700221; format: functional
Staphylococcus aureus [26] = assay: Antibacterial activity against vancomycin intermediate and methicillin resistant Staphylococcus aureus ATCC 700698; format: functional
Staphylococcus aureus [27] = assay: Selectivity ratio of MBC for bactericidal activity against methicillin resistant Staphylococcus aureus 16-30 to MIC for antibacterial activity against methicillin resistant Staphylococcus aureus 16-30; format: functional
Staphylococcus aureus [28] = assay: Antibacterial activity against methicillin sensitive Staphylococcus aureus ATCC 29213; format: functional
Staphylococcus aureus [29] = assay: Bactericidal activity against vancomycin intermediate and methicillin resistant Staphylococcus aureus ATCC 700698; format: functional
Enterococcus faecalis [30] = assay: Selectivity ratio of MBC for bactericidal activity against Vanomycin-resistant Enterococcus faecalis ATCC 51299 to MIC for antibacterial activity against Vanomycin-resistant Enterococcus faecalis ATCC 51299; format: functional
Enterococcus faecium [31] = assay: Selectivity ratio of MBC for bactericidal activity against Vanomycin-resistant Enterococcus faecium ATCC 700221 to MIC for antibacterial activity against Vanomycin-resistant Enterococcus faecium ATCC 700221; format: functional
Enterococcus faecalis [32] = assay: Bactericidal activity against Vanomycin-resistant Enterococcus faecalis ATCC 51299; format: functional
Staphylococcus aureus [33] = assay: Selectivity ratio of MBC for bactericidal activity against vancomycin intermediate and methicillin resistant Staphylococcus aureus ATCC 700698 to MIC for antibacterial activity against vancomycin intermediate and methicillin resistant Staphylococcus aureus ATCC 700698; format: functional
Enterococcus faecium [34] = assay: Bactericidal activity against Vanomycin-resistant Enterococcus faecium ATCC 700221; format: functional

Row | SMILES | MBC (Staphylococcus aureus [1]) [µM] | IC50 [2] [µM] | MIC (Staphylococcus aureus [3]) [µM] | IC50 [4] [µM] | Ratio (Staphylococcus aureus [5]) | MIC (Staphylococcus aureus [6]) [µM] | MIC [7] [µM] | MIC (Enterococcus faecium [8]) [µM] | MBC (Staphylococcus aureus [9]) [µM] | MIC (Staphylococcus aureus [10]) [µM] | MIC (Staphylococcus aureus [11]) [µM] | MIC (Enterococcus faecium [12]) [µM] | MIC (Staphylococcus aureus [13]) [µM] | MIC [14] [µM] | MIC (Staphylococcus aureus [15]) [µM] | MIC [16] [µM] | Ratio (Staphylococcus aureus [17]) | MIC (Staphylococcus aureus [18]) [µM] | MIC (Enterococcus faecalis [19]) [µM] | MIC [20] [µM] | other results
1 | O=C(Nc1ccc(Cl)c(C(F)(F)F)c1)Nc1ccc(Cl)c(C(F)(F)F)c1 | 9.59 (≈ 4 µg/mL) | 2.69 | 1.2 (≈ 0.501 µg/mL) | 7.72 | 4 | 1.2 (≈ 0.501 µg/mL) | 1.2 (≈ 0.501 µg/mL) | 2.4 (≈ 1 µg/mL) | 4.79 (≈ 2 µg/mL) | 1.2 (≈ 0.501 µg/mL) | 1.2 (≈ 0.501 µg/mL) | 4.79 (≈ 2 µg/mL) | 1.2 (≈ 0.501 µg/mL) | 1.2 (≈ 0.501 µg/mL) | 1.2 (≈ 0.501 µg/mL) | 1.2 (≈ 0.501 µg/mL) | 8 | 1.2 (≈ 0.501 µg/mL) | 4.79 (≈ 2 µg/mL) | 1.2 (≈ 0.501 µg/mL) | MBC (Staphylococcus aureus [21]): 9.59 µM (≈ 4 µg/mL); MIC (Staphylococcus aureus [22]): 1.2 µM (≈ 0.501 µg/mL); MIC (Enterococcus faecalis [23]): 4.79 µM (≈ 2 µg/mL); MIC (Staphylococcus aureus [24]): 1.2 µM (≈ 0.501 µg/mL); MIC (Enterococcus faecium [25]): 4.79 µM (≈ 2 µg/mL); MIC (Staphylococcus aureus [26]): 1.2 µM (≈ 0.501 µg/mL); Ratio (Staphylococcus aureus [27]): 8; MIC (Staphylococcus aureus [28]): 1.2 µM (≈ 0.501 µg/mL)
2 | O=C(Nc1ccc(Cl)c(C(F)(F)F)c1)Nc1cc(F)c(F)c(F)c1F | 10.3 (≈ 4 µg/mL) | 8.9 | 0.31 (≈ 0.12 µg/mL) | 7.09 | 33 | 0.31 (≈ 0.12 µg/mL) | 0.31 (≈ 0.12 µg/mL) | 1.29 (≈ 0.499 µg/mL) | 10.3 (≈ 4 µg/mL) | 0.65 (≈ 0.251 µg/mL) | 0.31 (≈ 0.12 µg/mL) | 1.29 (≈ 0.499 µg/mL) | 0.31 (≈ 0.12 µg/mL) | 0.31 (≈ 0.12 µg/mL) | 0.31 (≈ 0.12 µg/mL) | 0.65 (≈ 0.251 µg/mL) | 33 | 0.65 (≈ 0.251 µg/mL) | 5.17 (≈ 2 µg/mL) | 0.65 (≈ 0.251 µg/mL) | MBC (Staphylococcus aureus [29]): 10.3 µM (≈ 4 µg/mL); Ratio (Enterococcus faecalis [30]): >32; Ratio (Enterococcus faecium [31]): >32; MBC (Enterococcus faecalis [32]): > 82.8 µM; MBC (Staphylococcus aureus [21]): 10.3 µM (≈ 4 µg/mL); MIC (Staphylococcus aureus [22]): 0.31 µM (≈ 0.12 µg/mL); MIC (Enterococcus faecalis [23]): 2.59 µM (≈ 1 µg/mL); MIC (Staphylococcus aureus [24]): 0.31 µM (≈ 0.12 µg/mL); MIC (Enterococcus faecium [25]): 1.29 µM (≈ 0.499 µg/mL); Ratio (Staphylococcus aureus [33]): 33; MIC (Staphylococcus aureus [26]): 0.31 µM (≈ 0.12 µg/mL); MBC (Enterococcus faecium [34]): > 82.8 µM; Ratio (Staphylococcus aureus [27]): 16; MIC (Staphylococcus aureus [28]): 0.31 µM (≈ 0.12 µg/mL)
3 | O=C(Nc1ccc2c(c1)OC(F)(F)O2)Nc1ccc(Cl)c(C(F)(F)F)c1 | 2.53 (≈ 0.999 µg/mL) | 9.02 | 0.63 (≈ 0.249 µg/mL) | 5.68 | 4 | 1.27 (≈ 0.501 µg/mL) | 1.27 (≈ 0.501 µg/mL) | 5.07 (≈ 2 µg/mL) | 2.53 (≈ 0.999 µg/mL) | 1.27 (≈ 0.501 µg/mL) | 0.63 (≈ 0.249 µg/mL) | 10.1 (≈ 4 µg/mL) | 0.63 (≈ 0.249 µg/mL) | 1.27 (≈ 0.501 µg/mL) | 0.63 (≈ 0.249 µg/mL) | 1.27 (≈ 0.501 µg/mL) | 4 | 0.63 (≈ 0.249 µg/mL) | 10.1 (≈ 4 µg/mL) | 1.27 (≈ 0.501 µg/mL) | MBC (Staphylococcus aureus [21]): 5.07 µM (≈ 2 µg/mL); MIC (Staphylococcus aureus [22]): 0.63 µM (≈ 0.249 µg/mL); MIC (Enterococcus faecalis [23]): 5.07 µM (≈ 2 µg/mL); MIC (Staphylococcus aureus [24]): 1.27 µM (≈ 0.501 µg/mL); MIC (Enterococcus faecium [25]): 10.1 µM (≈ 4 µg/mL); MIC (Staphylococcus aureus [26]): 0.63 µM (≈ 0.249 µg/mL); Ratio (Staphylococcus aureus [27]): 8; MIC (Staphylococcus aureus [28]): 0.63 µM (≈ 0.249 µg/mL)
4 | O=C(Nc1ccc(OC(F)(F)F)cc1)Nc1ccc(Cl)c(C(F)(F)F)c1 | > 161 | 9.31 | 1.25 (≈ 0.498 µg/mL) | 6.27 | >128 | 0.3 (≈ 0.12 µg/mL) | 1.25 (≈ 0.498 µg/mL) | 2.51 (≈ 1 µg/mL) | > 161 | 1.25 (≈ 0.498 µg/mL) | 1.25 (≈ 0.498 µg/mL) | 2.51 (≈ 1 µg/mL) | 1.25 (≈ 0.498 µg/mL) | 0.63 (≈ 0.251 µg/mL) | 0.63 (≈ 0.251 µg/mL) | 1.25 (≈ 0.498 µg/mL) | >255 | 2.51 (≈ 1 µg/mL) | 2.51 (≈ 1 µg/mL) | 1.25 (≈ 0.498 µg/mL) | MBC (Staphylococcus aureus [29]): > 161 µM; Ratio (Enterococcus faecalis [30]): >128; Ratio (Enterococcus faecium [31]): >257; MBC (Enterococcus faecalis [32]): > 321 µM; MBC (Staphylococcus aureus [21]): > 80.3 µM; MIC (Staphylococcus aureus [22]): 0.15 µM (≈ 0.0598 µg/mL); MIC (Enterococcus faecalis [23]): 2.51 µM (≈ 1 µg/mL); MIC (Staphylococcus aureus [24]): 0.63 µM (≈ 0.251 µg/mL); MIC (Enterococcus faecium [25]): 1.25 µM (≈ 0.498 µg/mL); Ratio (Staphylococcus aureus [33]): >255; MIC (Staphylococcus aureus [26]): 0.63 µM (≈ 0.251 µg/mL); MBC (Enterococcus faecium [34]): > 321 µM; Ratio (Staphylococcus aureus [27]): >32; MIC (Staphylococcus aureus [28]): 0.63 µM (≈ 0.251 µg/mL)
5 | O=C(Nc1ccc(Cl)cc1)Nc1ccc(Cl)c(C(F)(F)F)c1 [CLOFLUCARBAN] | > 45.8 | 4.5 | 0.34 (≈ 0.119 µg/mL) | 7.7 | >135 | 0.34 (≈ 0.119 µg/mL) | 0.72 (≈ 0.251 µg/mL) | 2.86 (≈ 0.999 µg/mL) | > 45.8 | 1.43 (≈ 0.499 µg/mL) | 0.34 (≈ 0.119 µg/mL) | 1.43 (≈ 0.499 µg/mL) | 0.72 (≈ 0.251 µg/mL) | 0.72 (≈ 0.251 µg/mL) | 0.72 (≈ 0.251 µg/mL) | 0.72 (≈ 0.251 µg/mL) | >64 | 0.72 (≈ 0.251 µg/mL) | 2.86 (≈ 0.999 µg/mL) | 0.72 (≈ 0.251 µg/mL) | MBC (Staphylococcus aureus [29]): > 22.9 µM; Ratio (Enterococcus faecalis [30]): >128; Ratio (Enterococcus faecium [31]): >64; MBC (Enterococcus faecalis [32]): > 183 µM; MBC (Staphylococcus aureus [21]): > 22.9 µM; MIC (Staphylococcus aureus [22]): 0.34 µM (≈ 0.119 µg/mL); MIC (Enterococcus faecalis [23]): 1.43 µM (≈ 0.499 µg/mL); MIC (Staphylococcus aureus [24]): 0.72 µM (≈ 0.251 µg/mL); MIC (Enterococcus faecium [25]): 1.43 µM (≈ 0.499 µg/mL); Ratio (Staphylococcus aureus [33]): >32; MIC (Staphylococcus aureus [26]): 0.72 µM (≈ 0.251 µg/mL); MBC (Enterococcus faecium [34]): > 91.7 µM; Ratio (Staphylococcus aureus [27]): >32; MIC (Staphylococcus aureus [28]): 0.34 µM (≈ 0.119 µg/mL)
